US20240293425A1, “BZD-1 AS A CHEMO[…] CANCER” (University of Cincinnati, priority 2021, published 2024)
In brackets after ≈: the same amount, converted by molar mass.

Tests used:
[1] = tested on: methylated and unmethylated GBM cells; experiment: In vitro cytotoxicity of GBM cells, BZD-1 and TMZ single or combined; format: cell-based
[2] = tested on: unmethylated GBM lines BT142-GFP and G43; experiment: Spheroid assay; format: cell-based; conditions: BZD-1 + TMZ; BT142-GFP and G43 spheroids; qualitative
Description: Spheroid assays were carried out using two unmethylated GBM lines: BT142-GFP (FIG. 3A) and G43 (FIG. 3B) to qualitatively assess the effect of BZD-1+TMZ.

[3] = Stability of co-solvent formulation at room temperature; format: physicochemical
[4] = tested on: H1792 human lung cancer cells; experiment: MTS proliferation assay, BZD-1 alone; format: cell-based
Description: 10^3 H1792 cells/well in 100 uL of medium were plated in a 96 well plate and allowed to attach for 24 hrs. The next day, BZD-1 (stock, 40 mM in DMSO) was first diluted to 40 μM in fresh cell culture medium, then serially 2-fold diluted. Medium on cells was then carefully aspirated and replaced with 100 μL of vehicle (DMSO)/drug containing medium, with 5 replicated for each control/drug dilution. Cells were returned to the incubator for 48 hours.
(§1) For MTS Assay, medium was carefully aspirated and replaced with 100 μL of phenol red free medium. Then 20 μL of MTS reagent (Cell Titer 96 Aqueous Non-Radioactive Cell Proliferation Assay reagent—Promega) was added to each well. The plate was returned to incubator for 1 hour, then OD acquired at 490 nm in a plate reader. OD values were then analyzed, and the graph obtained using GraphPad Prism.

[5] = tested on: H1792 human lung cancer cells; experiment: MTS proliferation assay, DTX + 2.5 μM BZD-1; format: cell-based
Description: 10^3 H1792 cells/well in 100 μL of medium were plated in a 96 well plate and allowed to attach for 24 hrs. The next day, large volume of fresh medium containing 2.5 μM BZD-1 was prepared from 40 mM BZD-1 stock in DMSO. For Docetaxel (DTX) dilutions, either fresh medium was used for DTX only or 2.5 μM BZD-1 containing medium was used for DTX+2.5 μM BZD-1 treatment. Medium on cells was then aspirated and replaced by 100 μL of vehicle (DMSO)/drug containing media, with 5 replicated for each control/drug dilution. Cells were returned to the incubator for 48 hours.
as §1, with “was” for “was carefully”, “by” for “with”
10^3 H1792 cells/well in 100 μL of medium were plated in a 96 well plate and allowed to attach for 24 hrs. […]
For MTS Assay, medium was aspirated and replaced with 100 μL of phenol red free medium. […] The plate was returned to the incubator for 1 hour, then OD acquired at 490 nm in a plate reader. OD values were then analyzed, and the graph obtained using GraphPad Prism.

H1792 cells = experiment: Clonogenic assay, BZD-1 with or without 0.5 nM DTX; format: cell-based, human; conditions: BZD-1 + 0.5 nM DTX, 12 days
Description: 300 H1792 cells/well in 3 mL of medium were plated in a 6 well plate and allowed to attach for 36 hrs. A large volume of fresh medium containing 0.5 nM Docetaxel (DTX) was prepared from 1 mM stock in DMSO. For BZD-1 dilution, either fresh medium or +0.5 nM DTX containing medium was used. Medium on cells was then aspirated and replaced by 3 mL of vehicle (DMSO)/Drug containing media in triplicate for each control/drug dilution. Cells were returned to the incubator for 12 days. For staining, medium was aspirated, cells were washed 1× with PBS and fixed 15 minutes with methanol at room temperature. Methanol was then removed, and crystal violet staining solution added to cells and incubated 30 minutes at room temperature. Plates were then washed extensively with tap water, dried and pictured.

H1792 xenograft tumor = experiment: H1792 flank xenograft dose response; format: in vivo, NOD-SCID mice
Description: NOD-SCID mice (3 mice/group) were implanted with 10^6 H1792 cells s.c. in both flanks. When the tumors were palpable (day 11 post implantation), treatment was started and consisted of daily i.p. injections of vehicle (DMSO) or BZD-1 drug dissolved in DMSO for 7 days. Tumor size was measured every other day using a caliper. Tumor volume was calculated as follows: […]
At day 46 post tumor implantation, mice were euthanized following institutional IACUC procedures. Tumors from both flanks were resected, weighed, and average tumor mass for each group was calculated, plotted, and photographed.

[6] = Pharmacokinetics, brain penetration
[7] = Metabolic stability in human liver microsomes; conditions: within 1 hr
rats = experiment: Visible adverse effects after single dose i.p.; conditions: 12 hrs after single dose i.p., co-solvent formulation
[8] = Solubility in co-solvent injectable formulation; conditions: co-solvent based injectable formulation, aqueous with cosolvent or surfactant or cyclodextrin
[9] = daily i.p. for 7 days, NOD-SCID mice

C#Cc1ccc2c(c1)C(c1ccccc1F)=NCC(=O)N2C [BZD-1, 7-ethynyl-5-(2-fluorophenyl)-1-methyl-1,3-dihydro-2H-benzo[e][1,4]diazepin-2-one]
Effect of combined therapy on TMZ resistance ([1]; BZD-1 + TMZ, unmethylated GBM cell lines): overcomes TMZ resistance
Synergy of BZD-1 and TMZ (Chou-Talay Combination Index Equation) ([1]; BZD-1 in combination with TMZ, GBM cells): act synergistically
Spheroid response to combination therapy [2]: significant disaggregation
Stable at room temperature [3]: up to 6 months
Proliferation of H1792 cells ([4]; 48 hours, in vitro): inhibits proliferation
IC50 ([4]; Homo sapiens, NCI-H1792, 48 hours): 4.5 to 6 µM
Effect on docetaxel cytotoxicity ([5]; 2.5 μM BZD-1 + DTX, 48 hours, MTS): potentiates the cytotoxic effect of docetaxel
Combination Index (CI) ([5]; BZD-1 combined with DTX, H1792 cell growth in vitro): 0.6
Clonogenic growth, combination with docetaxel (H1792 cells): work synergistically
Most effective dose (H1792 xenograft tumor; [9]): 2.5 mg/kg
Tumor volume compared to vehicle (H1792 xenograft tumor; [9]): reduced tumor volume
Sedation in the animal model (H1792 xenograft tumor; doses higher than 2.5 mg/kg): sedating
Time of penetration into the brain ([6]; brain): ≤ 5 min
Accumulation in brain extracellular fluid ([6]; brain extracellular fluid): 161.3 ng/mL
Breakdown products in human liver microsomes [7]: no breakdown products were found
Visible adverse effects (rats): no visible adverse effects
solubility [8]: 10000 µg/mL (≈ 34.2 mM)
